Source: patent US12378211B2, “Carbonic anhydrase inhibitors and antibiotics against multidrug resistant bacteria” (Purdue Research Foundation, priority 2018, dated 2025)
In brackets after ≈: the same amount, converted by molar mass. Where two headings read alike, the source gives them in different places. Each block holds one compound with its values, some of them ahead of it.

How the values were obtained:
[1] = system: Enterococcus faecalis-S613 HM-334; experiment: MIC in presence of 4% human serum albumin; assay type: cell-based; details: TSB supplemented with 4% human serum albumin
Procedure: The minimum inhibitory concentrations (MICs) of CAIs were tested against vancomycin resistant Enterococcus faecalis—S613 HM 334 strain as per the guidelines provided by the Clinical and Laboratory Standards Institute (CLSI). The selected strain was streaked on Tryptic Soy Agar (TSA) plate and let grow for 24 hours at 37° C. Afterwards, a bacterial solution equivalent to 0.5 McFarland standard was prepared and diluted in tryptone soy broth (TSB) supplemented with 4% human serum albumin (HAS) to achieve a bacterial concentration of about 5×10^5 CFU/mL and seeded in 96-well well plates. Compounds and control drugs were added in the first row of the 96-well plates and serially diluted along the plates. Plates were then incubated aerobically at 37° C. for 18-20 hours. MICs reported in table (6) are the minimum concentration of the compounds/control drugs that could inhibit completely the visual growth of the bacteria.

[2] = system: Enterococcus faecalis—S613 HM-334; experiment: MIC of CAIs in BHIB and TSB; assay type: cell-based
Procedure: The minimum inhibitory concentrations (MICs) of CAIs were tested against clinical isolates of vancomycin sensitive and vancomycin resistant Enterococci strains as per the guidelines provided by the Clinical and Laboratory Standards Institute (CLSI). The selected strains of Enterococci were streaked on Tryptic Soy Agar (TSA) plates and let grow for 24 hours at 37° C. Afterwards, a bacterial solution equivalent to 0.5 McFarland standard was prepared and diluted in tryptone soy broth (TSB) or brain heart infusion broth (BHIB) to achieve a bacterial concentration of about 5×10^5 CFU/mL and seeded in 96-well well plates. Compounds and control drugs were added in the first row of the 96-well plates and serially diluted along the plates. Plates were then incubated aerobically at 37° C. for 18-20 hours. MICs reported in Table 5 are the minimum concentration of the compounds/control drugs that could inhibit completely the visual growth of the bacteria. The MIC values of CAIs against the tested VRE strains were higher in BHIB than in TSB. This may be due to binding of these drugs to proteins. […] They inhibited the VRE strains at MIC values ranging from 1 to 4 μg/mL.

[3] = system: Enterococcus fecalis Strain SF 24397 NR31970; experiment: MIC of CAIs in BHIB and TSB; assay type: cell-based
Procedure: (§1) The minimum inhibitory concentrations (MICs) of CAIs were tested against clinical isolates of vancomycin sensitive and vancomycin resistant Enterococci strains as per the guidelines provided by the Clinical and Laboratory Standards Institute (CLSI). The selected strains of Enterococci were streaked on Tryptic Soy Agar (TSA) plates and let grow for 24 hours at 37° C. Afterwards, a bacterial solution equivalent to 0.5 McFarland standard was prepared and diluted in tryptone soy broth (TSB) or brain heart infusion broth (BHIB) to achieve a bacterial concentration of about 5×10^5 CFU/mL and seeded in 96-well well plates. Compounds and control drugs were added in the first row of the 96-well plates and serially diluted along the plates. Plates were then incubated aerobically at 37° C. for 18-20 hours. MICs reported in Table 5 are the minimum concentration of the compounds/control drugs that could inhibit completely the visual growth of the bacteria.

[4] = system: Enterococcus faecium Patient #2-1-NR-31909; experiment: MIC of CAIs in BHIB and TSB; assay type: cell-based
Procedure: as §1

[5] = system: Enterococcus faecium E417-HM-965; experiment: MIC of CAIs in BHIB and TSB; assay type: cell-based
Procedure: as §1

[6] = system: Bifidobacterium longum subsp. Longum—44B HM 845; experiment: MIC against human normal gut microbiota; assay type: cell-based; details: Bifidobacterium longum; BHIS broth, anaerobic, 48 hours; read-out: MIC
Procedure: (§2) Three different bacterial strains were used in this experiment; Bifidobacterium (anaerobic Gram positive bacteria), Bacteroides (anaerobic Gram negative bacteria) and Lactobacillus (microaerophilic Gram positive bacteria). Bifidobacterium and Bacteroides were first grown for 48 hours at 37° C., anaerobically using brain heart infusion supplemented (BHIS) agar (Brain heart infusion agar supplemented with hemin, vitamin K and L-cysteine). Lactobacillus was cultivated on MRS agar and incubated in presence of 5% CO2 for 48 hours at 37° C. Each bacterium was suspended in phosphate buffered saline (PBS) to produce a suspension with optical density that matches 0.5 McFarland standard and diluted in brain heart infusion supplemented broth (for Bifidobacterium and Bacteroides) or in MRS broth (for Lactobacillus) to achieve bacterial concentration of approximately 5×10^5 CFU/ml. Bacteria were then seeded in 96-well plates containing serial dilutions of the compounds and incubated as mentioned previously for 48 hours.

[7] = system: Bacteroides fragilis—CL07T00C01 HIM-709; experiment: MIC against human normal gut microbiota; assay type: cell-based; details: Bacteroides; BHIS broth, anaerobic, 48 hours; read-out: MIC
Procedure: as §2

[8] = system: Lactobacillus casei ATCC 334; experiment: MIC against human normal gut microbiota; assay type: cell-based; details: Lacticaseibacillus casei, ATCC334; MRS broth, 5% CO2, 48 hours; read-out: MIC
Procedure: as §2

[9] = system: Bifidobacterium breve—JCP7499 HIM 1120; experiment: MIC against human normal gut microbiota; assay type: cell-based; details: Bifidobacterium; BHIS broth, anaerobic, 48 hours; read-out: MIC
Procedure: as §2

[10] = system: Bacteroides dorei—CL02T12C06 HM-719; experiment: MIC against human normal gut microbiota; assay type: cell-based; details: Bacteroides; BHIS broth, anaerobic, 48 hours; read-out: MIC
Procedure: as §2

[11] = system: Lactobacillus gasseri EX336960VC03 HIM-400; experiment: MIC against human normal gut microbiota; assay type: cell-based; details: Lactobacillus gasseri; MRS broth, 5% CO2, 48 hours; read-out: MIC
Procedure: as §2

[12] = system: MRSA NRS 384 (MRSA USA300); experiment: MIC against Staphylococci, broth microdilution; assay type: cell-based, Staphylococcus aureus; details: Staphylococcus aureus; TSB; read-out: MIC
Procedure: (§3) The minimum inhibitory concentrations (MICs) of the compounds and control drugs were determined using the broth microdilution method, according to guidelines outlined by the Clinical and Laboratory Standards Institute (CLSI) 1. Staphylococci strains were grown aerobically overnight on tryptone soya agar plates at 37° C., afterwards a bacterial solution equivalent to 0.5 McFarland standard was prepared and diluted in tryptone soy broth (TSB) to achieve a bacterial concentration of about 5×10^5 CFU/mL and seeded in 96-well well plates. Compounds and control drugs were added in the first row of the 96-well plates and serially diluted along the plates. Plates were then incubated aerobically at 37° C. for 18-20 hours. MICs reported in Table 2 are the minimum concentration of the compounds/control drugs that could inhibit completely the visual growth of the bacteria.

[13] = system: Enterococcus fecalis Strain SF 24397 NR31970; experiment: MIC, broth microdilution in TSB; assay type: cell-based; details: Enterococcus, TSB
Procedure: as §3, with “Institute (CLSI). Enterococci” for “Institute (CLSI) 1. Staphylococci”, “Table 1” for “Table 2”

[14] = system: Enterococcus faecalis—S613 HM-334; experiment: MIC, broth microdilution in TSB; assay type: cell-based; details: Enterococcus, TSB
Procedure: as §3, with “Institute (CLSI). Enterococci” for “Institute (CLSI) 1. Staphylococci”, “Table 1” for “Table 2”

[15] = system: Enterococcus faecium Patient #2-1-NR-31909; experiment: MIC, broth microdilution in TSB; assay type: cell-based; details: Enterococcus faecium, TSB
Procedure: as §3, with “Institute (CLSI). Enterococci” for “Institute (CLSI) 1. Staphylococci”, “Table 1” for “Table 2”

[16] = system: Enterococcus fecalis Strain SF 28073-NR31972; experiment: MIC, broth microdilution in TSB; assay type: cell-based; details: Enterococcus, TSB
Procedure: as §3, with “Institute (CLSI). Enterococci” for “Institute (CLSI) 1. Staphylococci”, “Table 1” for “Table 2”

[17] = system: Enterococcus fecalis Strain MMH594-NR31975; experiment: MIC, broth microdilution in TSB; assay type: cell-based; details: Enterococcus, TSB
Procedure: as §3, with “Institute (CLSI). Enterococci” for “Institute (CLSI) 1. Staphylococci”, “Table 1” for “Table 2”

[18] = system: Enterococcus faecium Patient #3-1 NR-31912; experiment: MIC, broth microdilution in TSB; assay type: cell-based; details: Enterococcus faecium, TSB
Procedure: as §3, with “Institute (CLSI). Enterococci” for “Institute (CLSI) 1. Staphylococci”, “Table 1” for “Table 2”

[19] = system: Enterococcus fecalis Strain SF24413 NR31971; experiment: MIC, broth microdilution in TSB; assay type: cell-based; details: Enterococcus, TSB
Procedure: as §3, with “Institute (CLSI). Enterococci” for “Institute (CLSI) 1. Staphylococci”, “Table 1” for “Table 2”

[20] = system: Enterococcus faecium E417-HM-965; experiment: MIC, broth microdilution in TSB; assay type: cell-based; details: Enterococcus faecium, E417HM965, TSB
Procedure: as §3, with “Institute (CLSI). Enterococci” for “Institute (CLSI) 1. Staphylococci”, “Table 1” for “Table 2”

[21] = system: Staphylococcus epidermidis NRS 101; experiment: MIC against Staphylococci, broth microdilution; assay type: cell-based; details: Staphylococcus epidermidis, NRS101; TSB; read-out: MIC
Procedure: as §3

[22] = Enterococcus, TSB, Table 5, read-out: MIC

MIC ([1]; Enterococcus, read-out: MIC): > 256 µg/mL | MIC ([2]; Enterococcus, BHIIB, read-out: MIC): > 128 µg/mL | MIC [2, 22]: 2 µg/mL | MIC ([3]; Enterococcus, BHIB, read-out: MIC): > 128 µg/mL | MIC [3, 22]: 2 µg/mL | MIC ([4]; Enterococcus faecium, BHIB, read-out: MIC): > 128 µg/mL | MIC ([4]; Enterococcus faecium, TSB, Table 5, read-out: MIC): 4 µg/mL | MIC ([5]; Enterococcus faecium, E417HM965, BHIB, read-out: MIC): 16 µg/mL | MIC ([5]; Enterococcus faecium, E417HM965, TSB, Table 5, read-out: MIC): 2 µg/mL
SMILES: CCN[C@H]1CN(CCCOC)S(=O)(=O)c2sc(S(N)(=O)=O)cc21 [Brinzolamide]

SMILES: NS(=O)(=O)c1nnc(NC(=O)c2ccccc2)s1 [CAI0012, N-(5-Sulfamoyl-1,3,4-thiadiazol-2-yl)benzamide]
MIC [6]: > 64 µg/mL | MIC [7]: > 64 µg/mL | MIC [8]: > 64 µg/mL | MIC [9]: > 64 µg/mL | MIC [10]: > 64 µg/mL | MIC [11]: > 64 µg/mL | MIC [12]: > 64 µg/mL | MIC ([13]; Table 1, read-out: MIC): 4 µg/mL (≈ 14.1 µM) | MIC ([13]; Table 7, read-out: MIC in TSB): 4 µg/mL (≈ 14.1 µM) | MIC ([14]; Table 1, read-out: MIC): 4 µg/mL (≈ 14.1 µM) | MIC ([14]; Table 7, read-out: MIC in TSB): 4 µg/mL (≈ 14.1 µM) | MIC ([15]; Table 1, read-out: MIC): 1 µg/mL (≈ 3.52 µM) | MIC ([15]; Table 7, read-out: MIC in TSB): 1 µg/mL (≈ 3.52 µM) | MIC ([16]; Table 1, read-out: MIC): 8 µg/mL (≈ 28.1 µM) | MIC ([16]; Table 7, read-out: MIC in TSB): 8 µg/mL (≈ 28.1 µM) | MIC ([17]; Table 1, read-out: MIC): 4 µg/mL (≈ 14.1 µM) | MIC ([17]; Table 7, read-out: MIC in TSB): 4 µg/mL (≈ 14.1 µM) | MIC ([18]; Table 1, read-out: MIC): 1 µg/mL (≈ 3.52 µM) | MIC ([18]; Table 7, read-out: MIC in TSB): 1 µg/mL (≈ 3.52 µM) | MIC ([19]; Table 1, read-out: MIC): 4 µg/mL (≈ 14.1 µM) | MIC ([19]; Table 7, read-out: MIC in TSB): 4 µg/mL (≈ 14.1 µM) | MIC ([20]; Table 1, read-out: MIC): 2 µg/mL (≈ 7.03 µM) | MIC ([20]; Table 7, read-out: MIC in TSB): 2 µg/mL (≈ 7.03 µM) | MIC [21]: > 64 µg/mL

MIC [1]: >256 µg/mL | MIC ([2]; BHIIB): >128 µg/mL | MIC ([2]; TSB, Table 5): 16 µg/mL | MIC ([3]; BHIB): >128 µg/mL | MIC ([3]; TSB, Table 5): 16 µg/mL | MIC ([4]; BHIB): >128 µg/mL | MIC ([4]; TSB, Table 5): 2 µg/mL | MIC ([5]; BHIB): 16 µg/mL | MIC ([5]; TSB, Table 5): 1 µg/mL
SMILES: NS(=O)(=O)c1cc(Cl)c(Cl)c(S(N)(=O)=O)c1 [Dichlophenamide]
